From patent US11834453B2, “Substituted pyrimido[5,4-d]pyrimidines as HER2 inhibitors” (Array BioPharma Inc., priority 2020, dated 2023)
Read-outs that look alike come from different tables or passages of the source.

Experiments:
[1] = target: ErbB2 insYVMA (HER2-YVMA, SEQ ID NO: 2) (Homo sapiens, UniProt P04626, INS775YVMA/P1170A); assay: biochemical; details: ErbB2 insYVMA enzyme assay
[2] = target: ErbB2 WT (Homo sapiens (Human), UniProt P04626); assay: ErbB enzyme assay (CisBio HTRF KinEASE-TK), Assay 2; type: biochemical
Procedure, shortened: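 ErbB2 phosphorylates 250 nM biotin-TK substrate at 1 mM ATP in 25 mM HEPES pH 7.4, 10 mM MgCl2, 0.01% Triton X-100 and 2% DMSO, for 30 min at 22 °C. Product is detected by HTRF with Sa-XL665 and TK-Ab-Cryptate. Percent of control is set by DMSO-only wells and pre-quenched wells.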

[3] = target: EGFR wild type (EGFR WT) (Homo sapiens (Human), UniProt P00533); assay: Cellular phosphorylation assay, EGF-stimulated EGFR phosphorylation in engineered NIH 3T3 cells, Phospho-EGFR DuoSet IC ELISA, Assay 5; type: cell-based
Procedure: NIH 3T3 cells were engineered to express EGFR wild type (EGFR WT; Assay 5, no footnote) with constructs obtained from GenScript and grown in DMEM supplemented with 10% fetal bovine serum and 15 μg/ml blasticidin. Cells were plated in 96-well plates at 20,000 cells/well and allowed to attach overnight at 37° C./5% CO2. Serially diluted compounds were added to the plates for 1 hour at 37° C./5% CO2. EGFR WT cells were stimulated with 100 ng/ml rEGF for an additional 10 minutes at 37° C./5% CO2. After compound incubation, medium was removed from the cells, which were then lysed in 100 μL/well lysis buffer according to the manufacturer's protocol (R&D Systems, DYC1095, Human Phospho-EGFR DuoSet IC ELISA). Same protocol was followed to determine the total levels of phospho-EGFR by measuring the optical density of each well using a VersaMax microplate reader. Curves were then generated and IC50 values calculated.

[4] = target: ErbB2 with Exon 20 YVMA insertion (HER2-YVMA) (Homo sapiens (Human), UniProt P04626, INS775YVMA); assay: Cellular phosphorylation assay, constitutive ErbB2 phosphorylation (Y1196) in engineered NIH 3T3 cells, Assay 4; type: cell-based
Procedure, shortened: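 Engineered NIH 3T3 cells expressing HER2-YVMA treated with compounds 1 h at 37 °C, then formaldehyde-fixed and methanol-permeabilized. pErbB2 Y1196 detected by in-cell infrared immunofluorescence, normalized to GAPDH. IC50 from the normalized curves.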

[5] = target: EGFR (Homo sapiens (Human), UniProt P00533); assay: ErbB enzyme assay (CisBio HTRF KinEASE-TK), Assay 3; type: biochemical
Procedure, shortened: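 Kinase + 250 nM biotin TK-substrate, 1 mM ATP, cpd (3-fold dil.), HEPES pH 7.4/10 mM MgCl2/0.01% Triton/2% DMSO; 30 min 22 °C. Quench w/ Sa-XL665 + TK-Ab-Cryptate, 1 h, HTRF. IC50 = 50 POC on 4PL fit.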

Chain of ErbB2 with Exon 20 YVMA insertion (HER2-YVMA) (P04626 other isoform, or with tags, fused parts or gaps ins YVMA behind 775): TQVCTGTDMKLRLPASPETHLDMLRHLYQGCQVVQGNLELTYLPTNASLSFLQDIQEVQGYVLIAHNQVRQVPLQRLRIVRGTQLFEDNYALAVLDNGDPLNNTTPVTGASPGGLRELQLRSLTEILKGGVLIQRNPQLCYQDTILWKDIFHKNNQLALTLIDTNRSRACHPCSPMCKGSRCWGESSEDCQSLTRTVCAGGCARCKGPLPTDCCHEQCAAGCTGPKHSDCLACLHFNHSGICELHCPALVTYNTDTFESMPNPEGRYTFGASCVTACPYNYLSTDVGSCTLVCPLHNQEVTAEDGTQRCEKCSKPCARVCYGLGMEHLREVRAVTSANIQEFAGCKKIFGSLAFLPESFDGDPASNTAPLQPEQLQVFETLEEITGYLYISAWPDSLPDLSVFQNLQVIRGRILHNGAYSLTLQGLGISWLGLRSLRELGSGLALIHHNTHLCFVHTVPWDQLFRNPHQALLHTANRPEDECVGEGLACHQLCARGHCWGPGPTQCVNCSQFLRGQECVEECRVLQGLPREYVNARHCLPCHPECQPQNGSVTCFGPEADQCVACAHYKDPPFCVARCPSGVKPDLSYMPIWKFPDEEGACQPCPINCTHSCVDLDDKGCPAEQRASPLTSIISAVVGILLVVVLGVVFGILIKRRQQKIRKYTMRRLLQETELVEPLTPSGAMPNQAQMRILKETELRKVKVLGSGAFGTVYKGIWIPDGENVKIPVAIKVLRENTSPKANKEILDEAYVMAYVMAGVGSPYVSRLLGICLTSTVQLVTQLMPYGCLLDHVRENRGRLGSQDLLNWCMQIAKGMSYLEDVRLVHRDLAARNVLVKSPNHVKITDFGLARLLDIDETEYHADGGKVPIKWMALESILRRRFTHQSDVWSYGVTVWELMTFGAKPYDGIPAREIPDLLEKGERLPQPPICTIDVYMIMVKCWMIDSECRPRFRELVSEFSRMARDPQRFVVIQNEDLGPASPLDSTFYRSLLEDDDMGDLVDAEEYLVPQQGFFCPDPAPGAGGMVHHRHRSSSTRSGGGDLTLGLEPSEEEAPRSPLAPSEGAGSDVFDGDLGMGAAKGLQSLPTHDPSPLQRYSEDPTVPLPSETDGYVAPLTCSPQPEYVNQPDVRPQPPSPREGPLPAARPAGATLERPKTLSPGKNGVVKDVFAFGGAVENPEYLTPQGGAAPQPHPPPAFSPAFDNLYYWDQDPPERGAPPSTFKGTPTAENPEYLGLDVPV
Chain of EGFR (P00533 25-1210): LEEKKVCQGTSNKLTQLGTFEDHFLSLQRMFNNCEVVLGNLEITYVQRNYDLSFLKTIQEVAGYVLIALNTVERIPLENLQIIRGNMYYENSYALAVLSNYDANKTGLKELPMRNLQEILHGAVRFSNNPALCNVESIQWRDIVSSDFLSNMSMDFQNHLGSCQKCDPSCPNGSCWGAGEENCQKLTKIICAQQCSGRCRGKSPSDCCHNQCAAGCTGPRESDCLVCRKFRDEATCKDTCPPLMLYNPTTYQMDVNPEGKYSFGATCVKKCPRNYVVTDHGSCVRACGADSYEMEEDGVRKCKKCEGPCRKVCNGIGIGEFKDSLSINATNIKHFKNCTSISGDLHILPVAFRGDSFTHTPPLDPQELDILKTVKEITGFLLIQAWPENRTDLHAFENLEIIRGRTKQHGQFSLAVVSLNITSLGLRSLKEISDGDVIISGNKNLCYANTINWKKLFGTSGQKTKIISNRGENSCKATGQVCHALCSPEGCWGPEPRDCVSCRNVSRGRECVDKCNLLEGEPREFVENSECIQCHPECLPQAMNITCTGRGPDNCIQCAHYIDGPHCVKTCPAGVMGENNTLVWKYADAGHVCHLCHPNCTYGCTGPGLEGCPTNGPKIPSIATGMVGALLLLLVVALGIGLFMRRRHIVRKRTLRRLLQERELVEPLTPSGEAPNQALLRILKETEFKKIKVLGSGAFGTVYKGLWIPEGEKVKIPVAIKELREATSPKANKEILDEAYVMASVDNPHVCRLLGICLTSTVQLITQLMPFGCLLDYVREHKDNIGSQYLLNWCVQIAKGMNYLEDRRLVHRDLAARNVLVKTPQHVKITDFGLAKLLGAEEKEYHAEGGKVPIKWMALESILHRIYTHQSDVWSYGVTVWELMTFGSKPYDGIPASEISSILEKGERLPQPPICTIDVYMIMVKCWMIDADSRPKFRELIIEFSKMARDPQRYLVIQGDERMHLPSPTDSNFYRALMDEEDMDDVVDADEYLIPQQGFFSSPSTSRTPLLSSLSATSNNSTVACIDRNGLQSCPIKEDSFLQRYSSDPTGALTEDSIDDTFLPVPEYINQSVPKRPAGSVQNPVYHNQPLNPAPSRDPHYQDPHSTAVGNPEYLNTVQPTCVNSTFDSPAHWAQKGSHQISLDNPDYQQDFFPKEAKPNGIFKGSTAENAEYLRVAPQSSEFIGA
Chain of EGFR wild type (EGFR WT) (P00533 25-1210): as above
Chain of ErbB2 insYVMA (HER2-YVMA, SEQ ID NO: 2) (P04626 with tags, fused parts or gaps INS775YVMA/P1170A limits assumed): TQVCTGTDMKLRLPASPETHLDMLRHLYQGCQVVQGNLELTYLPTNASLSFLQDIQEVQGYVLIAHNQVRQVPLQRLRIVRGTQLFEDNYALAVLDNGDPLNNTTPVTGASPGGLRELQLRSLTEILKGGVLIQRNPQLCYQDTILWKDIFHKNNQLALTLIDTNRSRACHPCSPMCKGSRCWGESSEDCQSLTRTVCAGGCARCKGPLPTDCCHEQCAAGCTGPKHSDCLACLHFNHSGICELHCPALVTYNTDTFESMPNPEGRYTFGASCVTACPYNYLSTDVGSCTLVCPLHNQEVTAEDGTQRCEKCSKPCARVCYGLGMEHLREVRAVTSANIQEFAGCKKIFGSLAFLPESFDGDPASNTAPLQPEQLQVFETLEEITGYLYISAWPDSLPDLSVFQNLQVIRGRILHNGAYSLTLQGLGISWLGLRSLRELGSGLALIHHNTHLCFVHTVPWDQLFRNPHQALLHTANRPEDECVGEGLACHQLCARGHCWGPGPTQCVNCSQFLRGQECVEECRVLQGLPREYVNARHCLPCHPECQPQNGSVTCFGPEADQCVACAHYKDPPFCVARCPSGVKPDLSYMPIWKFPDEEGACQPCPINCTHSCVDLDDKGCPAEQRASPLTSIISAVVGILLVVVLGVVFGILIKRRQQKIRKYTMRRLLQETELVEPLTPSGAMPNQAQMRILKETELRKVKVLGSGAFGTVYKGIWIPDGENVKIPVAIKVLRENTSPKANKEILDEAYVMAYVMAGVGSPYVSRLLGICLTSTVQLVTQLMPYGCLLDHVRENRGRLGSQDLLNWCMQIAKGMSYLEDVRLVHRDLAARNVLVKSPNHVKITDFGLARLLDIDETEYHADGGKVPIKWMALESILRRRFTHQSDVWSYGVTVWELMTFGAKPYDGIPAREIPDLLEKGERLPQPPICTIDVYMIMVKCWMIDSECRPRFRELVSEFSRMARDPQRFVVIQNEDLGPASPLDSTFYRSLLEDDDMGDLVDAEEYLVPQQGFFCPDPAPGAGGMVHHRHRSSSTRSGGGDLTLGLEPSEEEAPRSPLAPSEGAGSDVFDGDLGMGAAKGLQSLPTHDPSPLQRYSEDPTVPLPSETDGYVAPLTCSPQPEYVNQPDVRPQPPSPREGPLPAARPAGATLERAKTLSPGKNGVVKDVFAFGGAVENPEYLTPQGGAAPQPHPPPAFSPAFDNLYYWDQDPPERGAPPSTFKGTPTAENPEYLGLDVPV

SMILES | IC50 ([1]; read-out: Assay 1 IC50) | IC50 [2] | IC50 [3] | IC50 [4] | IC50 [5] | IC50 ([1]; Assay 1 IC50 (nM))
Cc1cc(Nc2ncnc3cnc(N4CCC(F)(F)[C@@H](O)C4)nc23)ccc1Oc1ccc2c(c1)ncn2C [Example 460] | 59.1 nM | 89.7 nM | ≥ 5000 nM | 88 nM | ≥ 10000 nM | –
Cc1cc(Nc2ncnc3cnc(N(C)C[C@H]4COCCO4)nc23)ccc1Oc1ccc2c(c1)ncn2C [Example 413] | 49.7 nM | 102 nM | ≥ 5000 nM | 30.8 nM | ≥ 10000 nM | –
CN(c1ncc2ncnc(Nc3ccc(Oc4ccn5ncnc5c4)c(Cl)c3)c2n1)[C@@H]1CCCOC1 [Example 368] | 3.6 nM | 4.8 nM | ≥ 5000 nM | 17.4 nM | 303 nM | –
Cc1cc(Nc2ncnc3cnc(N4CC[C@@H](C(F)F)C4)nc23)ccc1Oc1ccn2ncnc2c1 [Example 400] | 8.7 nM | 40.7 nM | ≥ 5000 nM | 218 nM | 8420 nM | –
Clc1cc(Nc2ncnc3cnc(N4CC[C@@H]5COC[C@H]54)nc23)ccc1Oc1ccn2ncnc2c1 [Example 376] | 13.3 nM | 11.7 nM | ≥ 5000 nM | 30.8 nM | 1200 nM | –
Cc1cc(Nc2ncnc3cnc(OCC4(F)CN(C)C4)nc23)ccc1Oc1ccc2c(c1)ncn2C [Example 292] | 105 nM | 558 nM | ≥ 5000 nM | 132 nM | ≥ 10000 nM | –
Cc1c(Oc2ccc3c(c2)ncn3C)ccc(Nc2ncnc3cnc(N4CC5CC5(O)C4)nc23)c1F (stereo not shown) [Example 347] | 79.6 nM | 110 nM | ≥ 5000 nM | 244 nM | ≥ 10000 nM | –
Cc1cc(Nc2ncnc3cnc(N4CCC5(CCOC5)C4)nc23)ccc1Oc1ccc2c(c1)ncn2C (stereo not shown) [Example 15, N-(3-methyl-4-((1-methyl-1H-benzo[d]imidazol-5-yl)oxy)phenyl)-6-(2-oxa-7-azaspiro[4.4]nonan-7-yl)pyrimido[5,4-d]pyrimidin-4-amine] | 21.4 nM | 51.1 nM | ≥ 5000 nM | 23.4 nM | ≥ 10000 nM | –
Cc1cc(Nc2ncnc3cnc(N4CCC[C@@]45CCOC5)nc23)ccc1Oc1ccc2c(c1)ncn2C (racemic) [Example 115, rac-(R)—N-(3-methyl-4-((1-methyl-1H-benzo[d]imidazol-5-yl)oxy)phenyl)-6-(7-oxa-1-azaspiro[4.4]nonan-1-yl)pyrimido[5,4-d]pyrimidin-4-amine] | 52.4 nM | 56.7 nM | ≥ 5000 nM | 15.6 nM | 2190 nM | –
C[C@H]1CN(c2ncc3ncnc(Nc4ccc(Oc5ccn6ncnc6c5)c(Cl)c4)c3n2)CCO1 [Example 327] | 20.8 nM | 32.1 nM | ≥ 5000 nM | 105 nM | 3820 nM | –
Cc1c(Oc2ccc3c(c2)ncn3C)ccc(Nc2ncnc3cnc(N4CC[C@H]4C(C)(C)O)nc23)c1F [Example 453] | 64.6 nM | 474 nM | ≥ 5000 nM | 383 nM | ≥ 10000 nM | –
Cc1cc(Nc2ncnc3cnc(N4C5CCC4COC5)nc23)ccc1Oc1ccn2ncnc2c1 [Example 419] | 110 nM | 196 nM | ≥ 5000 nM | 538 nM | ≥ 10000 nM | –
Cc1cc(Nc2ncnc3cnc(N(C)[C@@H]4CCOC4)nc23)ccc1Oc1ccn2ncnc2c1 [Example 427] | 25 nM | 43.1 nM | ≥ 5000 nM | 121 nM | 7940 nM | –
Cn1cnc2cc(Oc3ccc(Nc4ncnc5cnc(N6C7CCC6COC7)nc45)cc3Cl)ccc21 [Example 441] | – | 67.2 nM | ≥ 5000 nM | 89.1 nM | 9570 nM | 106 nM
